Laboratory results from PubChem BioAssay (NCI).
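Exposure lasted 48 hours, with cells grown in 96-well plates and compounds tested at five concentrations. TGI: total growth inhibition.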

What was measured:
Test in all cases: NCI-60 cell line screen, 48 h
PC-3 prostate = test system: PC-3 prostate
A498 renal = test system: A498 renal
LOX IMVI melanoma = test system: LOX IMVI melanoma
CAKI-1 renal = test system: CAKI-1 renal
SF-268 CNS = test system: SF-268 CNS
UACC-257 melanoma = test system: UACC-257 melanoma
HCC-2998 colon = test system: HCC-2998 colon
IGROV1 ovarian = test system: IGROV1 ovarian
TK-10 renal = test system: TK-10 renal
BT-549 breast = test system: BT-549 breast
NCI-H522 lung = test system: NCI-H522 lung
DU-145 prostate = test system: DU-145 prostate
MALME-3M melanoma = test system: MALME-3M melanoma
SF-539 CNS = test system: SF-539 CNS
T-47D breast = test system: T-47D breast
KM12 colon = test system: KM12 colon
OVCAR-8 ovarian = test system: OVCAR-8 ovarian
HL-60(TB) leukemia = test system: HL-60(TB) leukemia
SNB-75 CNS = test system: SNB-75 CNS
SK-MEL-5 melanoma = test system: SK-MEL-5 melanoma
M14 melanoma = test system: M14 melanoma
SN12C renal = test system: SN12C renal
SNB-19 CNS = test system: SNB-19 CNS
SR leukemia = test system: SR leukemia
A549 NSCLC = test system: A549 NSCLC
NCI-H23 lung = test system: NCI-H23 lung
SK-OV-3 ovarian = test system: SK-OV-3 ovarian
HOP-62 NSCLC = test system: HOP-62 NSCLC
UACC-62 melanoma = test system: UACC-62 melanoma
HT29 colon = test system: HT29 colon
ACHN renal = test system: ACHN renal
MDA-N = test system: MDA-N
SK-MEL-28 melanoma = test system: SK-MEL-28 melanoma
SK-MEL-2 melanoma = test system: SK-MEL-2 melanoma
RPMI-8226 leukemia = test system: RPMI-8226 leukemia
SW-620 colon = test system: SW-620 colon
HCT-15 colon = test system: HCT-15 colon
MCF7 breast = test system: MCF7 breast
COLO 205 colon = test system: COLO 205 colon
NCI-H226 lung = test system: NCI-H226 lung
K-562 leukemia = test system: K-562 leukemia
MDA-MB-435 = test system: MDA-MB-435
NCI-H460 lung = test system: NCI-H460 lung
NCI/ADR-RES ovarian = test system: NCI/ADR-RES ovarian
EKVX NSCLC = test system: EKVX NSCLC
CCRF-CEM leukemia = test system: CCRF-CEM leukemia
OVCAR-3 ovarian = test system: OVCAR-3 ovarian
OVCAR-4 ovarian = test system: OVCAR-4 ovarian
SF-295 CNS = test system: SF-295 CNS
HOP-92 NSCLC = test system: HOP-92 NSCLC
MOLT-4 leukemia = test system: MOLT-4 leukemia
HCT-116 colon = test system: HCT-116 colon
UO-31 renal = test system: UO-31 renal
HS 578T breast = test system: HS 578T breast
U251 CNS = test system: U251 CNS
786-0 renal = test system: 786-0 renal
OVCAR-5 ovarian = test system: OVCAR-5 ovarian
RXF 393 renal = test system: RXF 393 renal
MDA-MB-231 breast = test system: MDA-MB-231 breast

Measured: TGI

NC12Oc3cc(O)cc(O)c3C1(c1ccc(Cl)cc1)c1c(O)cc(O)cc1O2 (stereo not drawn)
92.9 µM: NCI-H522 lung
> 100 µM: PC-3 prostate | A498 renal | LOX IMVI melanoma | CAKI-1 renal | SF-268 CNS | UACC-257 melanoma | HCC-2998 colon | IGROV1 ovarian | TK-10 renal | BT-549 breast | DU-145 prostate | MALME-3M melanoma | SF-539 CNS | T-47D breast | KM12 colon | OVCAR-8 ovarian | HL-60(TB) leukemia | SNB-75 CNS | SK-MEL-5 melanoma | M14 melanoma | SN12C renal | SNB-19 CNS | SR leukemia | A549 NSCLC | NCI-H23 lung | SK-OV-3 ovarian | HOP-62 NSCLC | UACC-62 melanoma | HT29 colon | ACHN renal | MDA-N | SK-MEL-28 melanoma | SK-MEL-2 melanoma | RPMI-8226 leukemia | SW-620 colon | HCT-15 colon | MCF7 breast | COLO 205 colon | NCI-H226 lung | K-562 leukemia | MDA-MB-435 | NCI-H460 lung | NCI/ADR-RES ovarian | EKVX NSCLC | CCRF-CEM leukemia | OVCAR-3 ovarian | OVCAR-4 ovarian | SF-295 CNS | HOP-92 NSCLC | MOLT-4 leukemia | HCT-116 colon | UO-31 renal | HS 578T breast | U251 CNS | 786-0 renal | OVCAR-5 ovarian | RXF 393 renal

CC(C)C[C@H]1[C@@H](OCc2ccccc2)COS(=O)N1[C@H](C)c1ccccc1 (stereo partly drawn)
29.5 µM: M14 melanoma
34.3 µM: SF-295 CNS
19 µM: HCT-116 colon
35.9 µM: K-562 leukemia
65.2 µM: MDA-MB-231 breast
36.5 µM: U251 CNS
26 µM: OVCAR-3 ovarian
36.4 µM: CCRF-CEM leukemia
47.8 µM: NCI-H460 lung
78 µM: SK-OV-3 ovarian
36 µM: NCI-H226 lung
40.9 µM: KM12 colon
36.1 µM: SK-MEL-2 melanoma | 786-0 renal
23.3 µM: SK-MEL-5 melanoma
58.4 µM: RPMI-8226 leukemia
51.7 µM: HL-60(TB) leukemia
51.3 µM: MOLT-4 leukemia
67.4 µM: HOP-62 NSCLC
> 100 µM: PC-3 prostate | SF-268 CNS | UACC-257 melanoma | IGROV1 ovarian | TK-10 renal | BT-549 breast | DU-145 prostate | T-47D breast | OVCAR-8 ovarian | SNB-75 CNS | SNB-19 CNS | A549 NSCLC | NCI-H23 lung | UACC-62 melanoma | ACHN renal | MDA-N | SK-MEL-28 melanoma | SW-620 colon | HCT-15 colon | MDA-MB-435 | NCI/ADR-RES ovarian | EKVX NSCLC | HOP-92 NSCLC | UO-31 renal | OVCAR-5 ovarian
87.2 µM: A498 renal
32.1 µM: RXF 393 renal
95.6 µM: CAKI-1 renal
28.2 µM: LOX IMVI melanoma
48.3 µM: MALME-3M melanoma
40.1 µM: SN12C renal
38.6 µM: HS 578T breast
30.4 µM: NCI-H522 lung | COLO 205 colon
49.3 µM: HT29 colon

CCN(CC)C(=S)SS(=O)(=O)c1ccc(F)cc1
87.3 µM: UACC-257 melanoma
53.9 µM: HT29 colon
55.5 µM: RPMI-8226 leukemia
60.5 µM: M14 melanoma
40.4 µM: RXF 393 renal
> 100 µM: A498 renal | CAKI-1 renal | SF-268 CNS | HCC-2998 colon | TK-10 renal | BT-549 breast | DU-145 prostate | T-47D breast | KM12 colon | OVCAR-8 ovarian | SK-MEL-5 melanoma | SN12C renal | SNB-19 CNS | NCI-H23 lung | SK-OV-3 ovarian | HOP-62 NSCLC | UACC-62 melanoma | MDA-MB-231 breast | ACHN renal | MDA-N | SK-MEL-2 melanoma | HCT-15 colon | COLO 205 colon | NCI-H226 lung | K-562 leukemia | MDA-MB-435 | NCI-H460 lung | NCI/ADR-RES ovarian | EKVX NSCLC | OVCAR-3 ovarian | OVCAR-4 ovarian | SF-295 CNS | HOP-92 NSCLC | HCT-116 colon | HS 578T breast | 786-0 renal | OVCAR-5 ovarian
68.4 µM: MALME-3M melanoma
73.4 µM: U251 CNS
57.5 µM: SR leukemia
0.505 µM: NCI-H522 lung
53.7 µM: SW-620 colon
41.7 µM: LOX IMVI melanoma
30.5 µM: SK-MEL-28 melanoma
52.4 µM: SF-539 CNS
72.5 µM: UO-31 renal
